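Protocol summary: plate cells (96-well), add compound at 5 concentrations, incubate 48 h, interpolate endpoints linearly. GI50 marks 50% less growth.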 Active and inactive are the calls of the source. Rule as the data show it: active = GI50 up to about 1.1 µM and inactive = higher.
How the values were obtained:
Experiment in all cases: NCI-60 cell line screen, 48 h
K562 = system: K562
SK-OV-3 = system: SK-OV-3
NCI-H460 = system: NCI-H460
SR = system: SR
MOLT-4 = system: MOLT-4
HOP-62 = system: HOP-62
CCRF-CEM = system: CCRF-CEM
HT-29 = system: HT-29
OVCAR-3 = system: OVCAR-3
M14 = system: M14
SK-MEL-5 = system: SK-MEL-5
HOP-92 = system: HOP-92
OVCAR-4 = system: OVCAR-4
SK-MEL-28 = system: SK-MEL-28
SNB-75 = system: SNB-75
HCT-15 = system: HCT-15
UACC-62 = system: UACC-62
PC-3 = system: PC-3
SF-268 = system: SF-268

Compound	GI50 (K562)	GI50 (SK-OV-3)	GI50 (NCI-H460)	GI50 (SR)	GI50 (MOLT-4)	GI50 (HOP-62)	GI50 (CCRF-CEM)	GI50 (HT-29)	GI50 (OVCAR-3)	GI50 (M14)	GI50 (SK-MEL-5)	GI50 (HOP-92)	GI50 (OVCAR-4)	GI50 (SK-MEL-28)	GI50 (SNB-75)	GI50 (HCT-15)	GI50 (UACC-62)	GI50 (PC-3)	GI50 (SF-268)
O=c1[nH]ccc2c1ccn2C1CC(O)C(CO)O1 (configuration not stated)	> 100 µM (inactive)	> 100 µM (inactive)	> 100 µM (inactive)	> 100 µM (inactive)	> 100 µM (inactive)	> 100 µM (inactive)	> 100 µM (inactive)	> 100 µM (inactive)	> 100 µM (inactive)	> 100 µM (inactive)	> 100 µM (inactive)	> 100 µM (inactive)	> 100 µM (inactive)	> 100 µM (inactive)	46.5 µM (inactive)	> 100 µM	> 100 µM (inactive)	–	–
O=C1OC2(CCCCC2)C(Oc2ccc(Cl)cc2)=C1F	30.6 µM (inactive)	> 100 µM (inactive)	41.1 µM (inactive)	33.5 µM (inactive)	20.3 µM (inactive)	> 100 µM (inactive)	29.7 µM (inactive)	26.8 µM (inactive)	40.3 µM (inactive)	33 µM (inactive)	12.9 µM (inactive)	20.4 µM (inactive)	–	23.7 µM (inactive)	89.1 µM (inactive)	–	22.1 µM (inactive)	42.8 µM (inactive)	54 µM (inactive)
c1ccc2[nH]c(CNc3ccc(C4C[Se]N=N4)cc3)nc2c1 (configuration not stated)	27.9 µM (inactive)	> 100 µM (inactive)	41.2 µM (inactive)	9.86 µM (inactive)	9.02 µM (inactive)	> 100 µM (inactive)	25.7 µM (inactive)	> 100 µM (inactive)	21.7 µM (inactive)	67.3 µM (inactive)	15.1 µM (inactive)	> 100 µM (inactive)	27.5 µM (inactive)	78.9 µM (inactive)	43.2 µM (inactive)	> 100 µM	24.7 µM (inactive)	–	47.3 µM (inactive)
COc1ccc(/C(=N/NC(N)=O)C(c2ccc(OC)cc2)C2C(=O)Oc3ccccc32)cc1 (configuration not stated)	> 100 µM (inactive)	> 100 µM (inactive)	> 100 µM (inactive)	> 100 µM (inactive)	> 100 µM (inactive)	> 100 µM (inactive)	> 100 µM (inactive)	> 100 µM (inactive)	> 100 µM (inactive)	> 100 µM (inactive)	> 100 µM (inactive)	75 µM (inactive)	> 100 µM (inactive)	> 100 µM (inactive)	> 100 µM (inactive)	> 100 µM	> 100 µM (inactive)	–	> 100 µM (inactive)
CCCCOP1(=O)C=C(C)C(=C(Cl)Cl)C(C)=C1 (configuration not stated)	3.85 µM (inactive)	19.5 µM (inactive)	13 µM (inactive)	3.2 µM (inactive)	3.02 µM (inactive)	13.9 µM (inactive)	4.2 µM (inactive)	4.33 µM (inactive)	17.9 µM (inactive)	11.6 µM (inactive)	3.84 µM (inactive)	1.5 µM (inactive)	23.8 µM (inactive)	8.17 µM (inactive)	11.4 µM (inactive)	11.5 µM	7.01 µM (inactive)	–	5.56 µM (inactive)
O=[N+]([O-])c1cccc(/N=C2\c3ccccc3CN2c2cccc([N+](=O)[O-])c2)c1	> 100 µM (inactive)	> 100 µM (inactive)	> 100 µM (inactive)	–	> 100 µM (inactive)	> 100 µM (inactive)	–	> 100 µM (inactive)	65 µM (inactive)	> 100 µM (inactive)	> 100 µM (inactive)	19.4 µM (inactive)	65.9 µM (inactive)	> 100 µM (inactive)	24.8 µM (inactive)	> 100 µM	> 100 µM (inactive)	72.8 µM (inactive)	81.5 µM (inactive)
O=C1NCCS(=O)(=O)N[C@@H](CC2=CC=CCC2)C(=O)N2CCCC12 (some centres not stated)	> 100 µM (inactive)	> 100 µM (inactive)	> 100 µM (inactive)	> 100 µM (inactive)	> 100 µM (inactive)	> 100 µM (inactive)	> 100 µM (inactive)	> 100 µM (inactive)	> 100 µM (inactive)	> 100 µM (inactive)	> 100 µM (inactive)	> 100 µM (inactive)	> 100 µM (inactive)	> 100 µM (inactive)	> 100 µM (inactive)	> 100 µM	> 100 µM (inactive)	–	> 100 µM (inactive)
CC1OC(n2cc(F)c(=O)[nH]c2=O)CCC1=O (configuration not stated)	> 100 µM (inactive)	> 100 µM (inactive)	32.2 µM (inactive)	> 100 µM (inactive)	> 100 µM (inactive)	50.8 µM (inactive)	> 100 µM (inactive)	91 µM (inactive)	–	> 100 µM (inactive)	> 100 µM (inactive)	> 100 µM (inactive)	> 100 µM (inactive)	–	> 100 µM (inactive)	95.3 µM	> 100 µM (inactive)	–	> 100 µM (inactive)
CCOC(=O)Cn1c(=O)c2nc(SC)sc2n(-c2ccccc2)c1=O	> 100 µM (inactive)	–	> 100 µM (inactive)	> 100 µM (inactive)	> 100 µM (inactive)	> 100 µM (inactive)	> 100 µM (inactive)	> 100 µM (inactive)	–	> 100 µM (inactive)	> 100 µM (inactive)	33.7 µM (inactive)	–	> 100 µM (inactive)	> 100 µM (inactive)	> 100 µM	> 100 µM (inactive)	> 100 µM (inactive)	–
COc1ccc(N2C(=O)C3c4[nH]c5ccccc5c4C4CCC(C(C)(C)C)CC4C3C2=O)cc1OC (configuration not stated)	28.2 µM (inactive)	20.4 µM (inactive)	–	18.1 µM (inactive)	15.6 µM (inactive)	18 µM (inactive)	27.7 µM (inactive)	33.9 µM (inactive)	–	45.3 µM (inactive)	46.3 µM (inactive)	20.5 µM (inactive)	21.9 µM (inactive)	71.1 µM (inactive)	16.3 µM (inactive)	35 µM	63.4 µM (inactive)	–	18.7 µM (inactive)
COc1ccc2oc(=O)c(-c3csc(-c4ccccc4)n3)cc2c1	> 100 µM (inactive)	17.3 µM (inactive)	54 µM (inactive)	> 100 µM (inactive)	> 100 µM (inactive)	17.4 µM (inactive)	> 100 µM (inactive)	55.1 µM (inactive)	–	> 100 µM (inactive)	45.2 µM (inactive)	24.3 µM (inactive)	31 µM (inactive)	> 100 µM (inactive)	37.3 µM (inactive)	> 100 µM	34.5 µM (inactive)	89.5 µM (inactive)	28.8 µM (inactive)
CC#CC1C(OC(=O)c2ccccc2)CCCC1(CI)N=[N+]=[N-] (configuration not stated)	28.4 µM (inactive)	> 100 µM (inactive)	60.7 µM (inactive)	17.5 µM (inactive)	13.6 µM (inactive)	94 µM (inactive)	26.2 µM (inactive)	40.6 µM (inactive)	> 100 µM (inactive)	59.8 µM (inactive)	19.5 µM (inactive)	92.7 µM (inactive)	60.1 µM (inactive)	–	> 100 µM (inactive)	45.2 µM	> 100 µM (inactive)	–	67 µM (inactive)
N#CC1=C(c2ccccc2)NN(Cc2ccccc2)C(c2ccc(Cl)cc2)CC1=O (configuration not stated)	–	> 10 µM (inactive)	18 µM (inactive)	20.6 µM (inactive)	4.91 µM (inactive)	–	7.89 µM (inactive)	17.3 µM (inactive)	–	–	15.6 µM (inactive)	16.3 µM (inactive)	20.9 µM (inactive)	39.8 µM (inactive)	18.3 µM (inactive)	22.9 µM	–	–	29.3 µM (inactive)
OC1(C23CC4CC(CC(C4)C2)C3)CSCC1(O)C12CC3CC(CC(C3)C1)C2 (configuration not stated)	> 100 µM (inactive)	> 100 µM (inactive)	–	> 100 µM (inactive)	> 10 µM (inactive)	> 100 µM (inactive)	> 10 µM (inactive)	> 100 µM (inactive)	> 100 µM (inactive)	> 100 µM (inactive)	> 100 µM (inactive)	> 100 µM (inactive)	> 100 µM (inactive)	> 100 µM (inactive)	> 100 µM (inactive)	–	70.6 µM (inactive)	–	> 100 µM (inactive)
CC1(C)COC2(OC1)C1=NS(=O)(=O)CC13CCC2C3(C)C (configuration not stated)	> 100 µM (inactive)	> 100 µM (inactive)	> 100 µM (inactive)	> 100 µM (inactive)	> 100 µM (inactive)	> 100 µM (inactive)	> 100 µM (inactive)	> 100 µM (inactive)	> 100 µM (inactive)	> 100 µM (inactive)	> 100 µM (inactive)	> 100 µM (inactive)	> 100 µM (inactive)	> 100 µM (inactive)	> 100 µM (inactive)	> 100 µM	> 100 µM (inactive)	–	> 100 µM (inactive)
CC1(C)CCC[C@@]2(C)C1CC[C@H]1CC(O)C3(C)CCC12C3 (some centres not stated)	32.1 µM (inactive)	18.3 µM (inactive)	18.5 µM (inactive)	21.3 µM (inactive)	22 µM (inactive)	19.1 µM (inactive)	26.4 µM (inactive)	18.2 µM (inactive)	16.7 µM (inactive)	17.1 µM (inactive)	17.5 µM (inactive)	15.6 µM (inactive)	18.1 µM (inactive)	18.4 µM (inactive)	22.9 µM (inactive)	18.2 µM	15.8 µM (inactive)	–	19.2 µM (inactive)
Cc1ccc2[nH]c3c(C)c4c(c(C)c3c2c1)CN(C)C=C4	1.42 µM (inactive)	0.33 µM (active)	2.74 µM (inactive)	1.61 µM (inactive)	1.91 µM (inactive)	0.743 µM (active)	–	2.46 µM (inactive)	2.75 µM (inactive)	3.9 µM (inactive)	1.38 µM (inactive)	1.07 µM (active)	1.66 µM (inactive)	1.98 µM (inactive)	0.75 µM (active)	13.8 µM	1.62 µM (inactive)	–	0.353 µM (active)

— ChEMBL document CHEMBL1201862, “PubChem BioAssay data set” (2004)
